Residue numbers refer to the chain shown, from its start.
Legend:
PWR-1E cells = type: cell-based; conditions: tested range of concentrations
B16F10 cells = type: cell-based, mouse; conditions: CpdA 5×10^−6 M, 72 hours
GR [1] = target: T1, GR (Homo sapiens, UniProt P04150); assay: EMSA of GR-DNA binding in LNCaP-GR cells; type: cell-based; set-up: expressed in transfected cells; host or cells: LNCaP-GR (lentiviral GR); also DU145 and PC3 (endogenous GR); conditions: CpdA 10^−5 M, 4 hours
T1 sequence (P04150 1-777): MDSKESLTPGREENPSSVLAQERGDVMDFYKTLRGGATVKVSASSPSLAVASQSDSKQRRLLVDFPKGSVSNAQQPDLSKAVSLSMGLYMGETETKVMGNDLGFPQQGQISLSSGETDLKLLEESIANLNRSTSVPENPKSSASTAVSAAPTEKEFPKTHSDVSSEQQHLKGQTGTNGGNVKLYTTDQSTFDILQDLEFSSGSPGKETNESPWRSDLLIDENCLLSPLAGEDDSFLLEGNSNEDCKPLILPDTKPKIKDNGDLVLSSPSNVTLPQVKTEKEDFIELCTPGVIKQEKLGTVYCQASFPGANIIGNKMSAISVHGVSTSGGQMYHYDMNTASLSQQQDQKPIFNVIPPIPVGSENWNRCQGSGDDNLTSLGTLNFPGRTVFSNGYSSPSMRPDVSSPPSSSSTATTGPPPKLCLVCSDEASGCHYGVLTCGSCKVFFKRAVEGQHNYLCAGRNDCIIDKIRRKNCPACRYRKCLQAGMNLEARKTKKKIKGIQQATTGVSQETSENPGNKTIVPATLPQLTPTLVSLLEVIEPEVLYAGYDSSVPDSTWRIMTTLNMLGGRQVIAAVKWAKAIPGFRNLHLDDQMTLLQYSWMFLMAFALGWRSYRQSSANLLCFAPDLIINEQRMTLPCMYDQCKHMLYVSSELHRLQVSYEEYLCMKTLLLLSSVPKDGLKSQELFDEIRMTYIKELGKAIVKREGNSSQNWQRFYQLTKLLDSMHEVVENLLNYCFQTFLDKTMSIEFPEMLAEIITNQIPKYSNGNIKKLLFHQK

PC3 and LNCaP-GR cells = type: cell-based, human
A375 cells = type: cell-based, human; conditions: CpdA 5×10^−6 M, 72 hours
DU145 and PC3 cells = assay: Apoptosis by PARP cleavage, Western blotting; type: cell-based, human
GR [2] = target: T1, GR; assay: TAT.Luc dual Luciferase assay of GR transactivation in PC cells; type: cell-based; set-up: expressed in transfected cells; host or cells: LNCaP-GR (lentiviral GR); also DU145 and PC3 (endogenous GR); conditions: 24 hours
Procedure: FIG. 3. Effect of CpdA on GR function in PC cells. A. & B. CpdA-activated GR nuclear translocation. Cells were treated with CpdA, glucocorticoid FA, or anti-glucocorticoid RU486. Panel A (immunofluorescence). Panel B (Western blotting of nuclear protein using HDAC-1 and β-tubulin as protein loading controls). C. CpdA decreased GR-DNA binding (EMSA, nuclear proteins). LNCaP-GR cells were treated with 0.01% DMSO (control), Dex (10^−7 M) or CpdA (10^−5 M) for 4 hours. D. & E. CpdA effect on GR function. PC cells were transiently transfected with TAT.Luc (D) or κB.Luc (E), and control Renilla Luciferase reporters, treated with Dex (10^−6 M) or CpdA (10^−5 M) for 24 hours. For activation of NF-κB, cells were co-transfected with CMV.IKKβ plasmid (in panel E). Reporter activity was assessed by dual Luciferase assay and presented as factor of change.
FIG. 4. CpdA effect on GR function. A. & B. PC cells were transiently transfected with TAT.Luc (A) or κB.Luc (B), and control Renilla Luciferase reporters. Cells were treated with Dex (10^−6 M) and CpdA (10^−5 M) for 24 hours. For activation of NF-κB (as shown in panel B), cells were co-transfected with CMV.IKKβ plasmid. Reporter activity was assessed by dual Luciferase assay and presented as factor of change. […]

AR [3] = target: T2, AR (Homo sapiens, UniProt P10275, T878A); assay: AR nuclear translocation, Western blot and immunofluorescence in LNCaP cells; type: cell-based; conditions: 16 hours
T2 construct: epithelial cells expressing endogenous AR, LNCaP prostate cells were studied; endogenous in cells; host or cells: LNCaP
T2 sequence (P10275 1-920 T878A): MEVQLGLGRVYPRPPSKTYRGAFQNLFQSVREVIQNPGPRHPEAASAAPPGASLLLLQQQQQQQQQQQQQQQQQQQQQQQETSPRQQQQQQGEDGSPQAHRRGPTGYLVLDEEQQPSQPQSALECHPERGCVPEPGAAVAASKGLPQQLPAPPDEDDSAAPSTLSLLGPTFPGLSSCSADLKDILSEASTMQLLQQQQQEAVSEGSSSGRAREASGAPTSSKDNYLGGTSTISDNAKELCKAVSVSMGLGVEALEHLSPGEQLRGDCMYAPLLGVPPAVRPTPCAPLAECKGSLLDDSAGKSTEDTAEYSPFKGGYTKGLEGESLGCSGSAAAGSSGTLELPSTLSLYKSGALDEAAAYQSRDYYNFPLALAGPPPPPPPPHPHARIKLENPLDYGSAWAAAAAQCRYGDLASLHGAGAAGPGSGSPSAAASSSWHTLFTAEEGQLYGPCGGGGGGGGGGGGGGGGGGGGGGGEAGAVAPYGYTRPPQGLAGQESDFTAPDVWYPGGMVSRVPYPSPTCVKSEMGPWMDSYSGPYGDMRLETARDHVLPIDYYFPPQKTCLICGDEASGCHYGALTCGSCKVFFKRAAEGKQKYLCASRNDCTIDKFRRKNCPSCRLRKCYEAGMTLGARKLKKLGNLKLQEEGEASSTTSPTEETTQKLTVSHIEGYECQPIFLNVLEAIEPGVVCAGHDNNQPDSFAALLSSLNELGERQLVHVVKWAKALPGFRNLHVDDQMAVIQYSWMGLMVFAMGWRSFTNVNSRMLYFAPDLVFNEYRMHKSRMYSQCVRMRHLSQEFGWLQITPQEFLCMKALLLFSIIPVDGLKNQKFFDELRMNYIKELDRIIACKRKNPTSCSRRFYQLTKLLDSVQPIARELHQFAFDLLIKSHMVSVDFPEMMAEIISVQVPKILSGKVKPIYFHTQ

LNCaP cells = type: cell-based, human; conditions: 5 μM CpdA, 1-12 days
AR [4] = target: T2, AR; type: cell-based; conditions: LNCaP cells, CpdA 2×10^−6 M, 24 hours, basal and DHT 10^−7 M
[5] = rodents, proposed concentration 12.5 mg/kg; cited from earlier work
PC3 cells = type: cell-based, human
GR [6] = target: T1, GR; conditions: cited from earlier work
GR [7] = target: T1, GR; assay: GR nuclear translocation, Western blotting and immunofluorescence in LNCaP-GR cells; type: cell-based; set-up: expressed in transfected cells; host or cells: LNCaP-GR (lentiviral GR); also DU145 and PC3 (endogenous GR)
AR [8] = target: T2, AR; assay: EMSA of AR-DNA binding in LNCaP cells; type: cell-based
PC cells = type: cell-based, human; conditions: 72 hours
LNCaP-AR^low cells = type: cell-based, human; conditions: CpdA 2×10^−6 M, 1-10 days
LNCaP-GR cells = type: cell-based, human; conditions: monolayer and colony-forming assay, data not shown
C8161 cells = type: cell-based, human; conditions: CpdA 5×10^−6 M, 72 hours
AR [9] = target: T3, AR (Homo sapiens, UniProt P10275); conditions: cited from earlier work
T3 sequence (P10275 1-920): T2 sequence (P10275 1-920 T878A) with A878T

DU145 cells = type: cell-based, human
NF-κB = assay: κB.Luc dual Luciferase assay of GR transrepression in PC cells; type: cell-based, human; conditions: all studied prostate cells, basal and IKKβ-induced, CpdA 10^−5 M, 24 hours
[10] = CpdA 10^−9 M−2×10^−5 M, 72 hours

CNCC(Cl)c1ccc(OC(C)=O)cc1.Cl (centres unmarked) [CpdA, 2-(4-acetoxyphenyl)-2-chloro-N-methyl-ethylammonium chloride]
growth inhibition (PWR-1E cells): rather resistant | growth inhibition (B16F10 cells): strongly inhibited growth | GR-DNA binding (GR [1]): constitutively inhibit glucocorticoid-induced GR-DNA binding | sensitivity to CpdA after GR blockage (PC3 and LNCaP-GR cells): drastic loss of sensitivity | growth inhibition (A375 cells): strongly inhibited growth | treatment time after which apoptosis is induced (PARP cleavage) (DU145 and PC3 cells; CpdA 2×10^−6 M): 6 to 8 days | treatment time after which cells are sensitized to TNFα-induced apoptosis (DU145 and PC3 cells; CpdA then TNFα 10 ng/ml for 16 hours): 2 days | GR transcriptional activation (TAT.Luc) (GR [2]; LNCaP-GR, DU145 and PC3 cells, CpdA 10^−5 M): inhibit GR transcriptional activation | AR nuclear translocation (AR [3]): induce AR nuclear translocation | growth inhibition (LNCaP cells): strong growth inhibition | AR transcriptional activity (AR [4]): inhibited basal and DHT-induced transcriptional activity of AR | anti-inflammatory effect [5]: strong anti-inflammatory effect | growth inhibition vs vehicle-treated control (PC3 cells): 65-85% | growth inhibition, concentration-dependent (PC3 cells; [10]): strongly inhibit | competition for GR binding (GR [6]): competes with glucocorticoids for GR binding | GR nuclear translocation (GR [7]): induce GR nuclear import | AR DNA binding (AR [8]): constitutively inhibit AR DNA binding and especially DHT-induced AR DNA binding | concentration range of strong cytostatic effect (PC cells): 2−10 μM | growth inhibition (LNCaP-AR^low cells): resistant | sensitivity to growth inhibition vs control cells infected with empty virus (LNCaP-GR cells): significantly more sensitive | growth inhibition (C8161 cells): strongly inhibited growth | competition for AR binding (AR [9]): does not compete with androgen for AR binding | growth inhibition vs vehicle-treated control (DU145 cells): 60-65% | growth inhibition, concentration-dependent (DU145 cells; [10]): strongly inhibit | NF-κB function (κB.Luc) (NF-κB): strongly inhibited

CC1(C)O[C@@H]2C[C@H]3[C@@H]4C[C@H](F)C5=CC(=O)C=C[C@]5(C)[C@@]4(F)[C@@H](O)C[C@]3(C)[C@]2(C(=O)CO)O1 [FA, fluocinolone acetonide, reference compound]
induction of TAT.Luc reporter activity (GR [2]; PC cells): 10-15 folds
